Data on six compounds can be found in patent publication US8836218B2, “Methods of treatment using combination therapy” (Ambit Biosciences Corp., priority 2009, dated 2014).

Molecules are shown by their SMILES. pEC50: −log10 of the molar value. Like-named read-outs stand apart in the source and are kept apart here.

The test system of test [1] is MV4-11 cell lines. Description: AC220 in combination with etoposide, cell viability study (CellTiter-Blue). As to conditions: Homo sapiens; MV4-11, AC220 alone. It counts as cell-based. The protocol: (§1) In this assay, the sequence of administration of AC220 and etoposide was examined for its cytotoxic effect. For the combination schedules tested, MV4-11 cell lines were cultured in RPMI medium with 10% fetal bovine serum and penicillin/streptomycin to a density of 3e5/mL to 1e6/mL and plated at 6e5 cells per well. […] Cytotoxicity was assessed using the CellTiter-Blue™ Viability Assay (#G8081 Promega). A combination index (CI) value was generated for each combination experiment using a commercially available software program (Calcusyn; Biosoft, Manchester, United Kingdom). The interaction of the two agents was analyzed using the median effect method of Chou and Talalay (Adv. Enyme Regul. 1984; 22:27-55). The Combination index and Weighted combination index were calculated as described in Chou, Pharmacol. Rev. 58:621-681, 2006.
As described by Chou, supra, the ranges of CI indicate synergism, additive effect, and antagonism as follows:
CI<1—synergism, CI=1—additive effect, and CI>1—antagonism.

In test [2] the test system is MV4-11 cell lines. Description: AC220 in combination with cladribine, cell viability study (CellTiter-Blue). It counts as cell-based. As to conditions: Homo sapiens; MV4-11, AC220 alone. The protocol: as §1, with “cladribine” for “etoposide”, “Iscove” for “RPMI”, “3e5/mL” for “3e5/mL to 1e6/mL”, “6e4” for “6e5”, “22:27-55).” for “22:27-55). The Combination index and Weighted combination index were calculated as described in Chou, Pharmacol. Rev. 58:621-681, 2006.”
Background: Alamar Blue is a resazurin reagent that responds to reducing activity.

The test system of test [3] is MV4-11 solid tumor flank model. Description: Efficacy study of AC220 plus cytarabine in the MV4-11 solid tumor flank model. It counts as in vivo, SCID mouse. To be noted: for sustained complete regressions: either agent alone (Groups 3 and 5): cytarabine 30 mkd IP Day 1 to 10, AC220 1 mkd PO Day 1 to 24. The protocol: Dosing was initiated on day 14 post-inoculation with groups of 10 animals per arm. The size of the tumors averaged about 222 mm^3. […] Cytarabine was delivered in a formulation of sterile saline (5 ml/kg/day, prepared weekly) at about 30 or about 60 mkd, QD, IP, and dose was adjusted for body weight. […] The clinical signs and body weight were measured twice weekly. White blood cell (WBC) counts determined at the end of the cytarabine dosing period and again 7 days post drug treatment. The study was carried out in one or multiple treatment cycles with cytarabine delivered for 10 days on each 24 day cycle. […] [table]

The subject of test [4] is MV4-11 cell lines. Description: AC220 in combination with daunorubicin, cell viability study (CellTiter-Blue). It counts as cell-based. As to conditions: Homo sapiens; MV4-11, AC220 alone. The protocol:
as §1, with “daunorubicin” for “etoposide”, “22:27-55).” for “22:27-55). The Combination index and Weighted combination index were calculated as described in Chou, Pharmacol. Rev. 58:621-681, 2006.”

Test [5] deals with MV4-11 solid tumor flank model. Description: In vivo study of AC220 plus Aza-C in the MV4-11 solid tumor flank model. Further details: species or system SCID mouse. To be noted: for flank tumor volume: AC220 0.5 mkd PO. As for the experimental part:
The size of the tumors averaged about 230 mm^3. […] Aza-C was delivered in a formulation of sterile saline (10 ml/kg/day, prepared in 5-day batches) at about 3 or about 1 mkd, QD, IP, and dose was adjusted for body weight. The average group starting body weight was about 20.6 g. The clinical signs and body weight were measured twice weekly. White blood cell (WBC) counts determined at the end of the Aza-C dosing period and again 7 days post drug treatment. The study was carried out in one or multiple treatment cycles with Aza-C delivered for 5 days on each 15 day cycle. […] [table]

Test [6] relates to MV4-11 cell lines. Kind of test: AC220 in combination with cytarabine, cell viability study (CellTiter-Blue). As to conditions: Homo sapiens; MV4-11, AC220 alone. It counts as cell-based.
Protocol: In this assay, the sequence of administration of AC220 and cytarabine was examined for its cytotoxic effect. For the combination schedules tested, MV4-11 cell lines were cultured in Iscove medium with 10% fetal bovine serum and penicillin/streptomycin to a density of 3e5/mL and plated at 6e4 cells per well. […] Cytotoxicity was assessed using the CellTiter-Blue™ Viability Assay (#G8081 Promega). A combination index (CI) value was generated for each combination experiment using a commercially available software program (Calcusyn; Biosoft, Manchester, United Kingdom). The interaction of the two agents was analyzed using the median effect method of Chou and Talalay (Adv. Enyme Regul. 1984; 22:27-55).
For test [7], the system named is MV4-11 cell lines. To be noted: MV4-11, cladribine alone; read-out: reported EC50 value; cited from earlier work.
Test [8] relates to MV4-11 cell lines. As to conditions: MV4-11, cytarabine alone; read-out: reported EC50 value; cited from earlier work.
Test [9] concerns MV4-11 cell lines. To be noted: MV4-11, daunorubicin alone; read-out: reported EC50 value; cited from earlier work.
Test [10] concerns MV4-11 cell lines. To be noted: MV4-11, etoposide alone; read-out: reported EC50 value; cited from earlier work.

As for `CC(C)(C)c1cc(NC(=O)Nc2ccc(-c3cn4c(n3)sc3cc(OCCN5CCOCC5)ccc34)cc2)no1` [AC220, N-(5-tert-butyl-isoxazol-3-yl)-N′-{4-[7-(2-morpholin-4-yl-ethoxy)imidazo[2,1-b][1,3]benzothiazol-2-yl]phenyl}urea], the pEC50 in the test on MV4-11 cell lines [1], in the test with MV4-11 cell lines [2], in the test on MV4-11 cell lines [4] and in the test with MV4-11 cell lines [6] was 9.46 throughout. Further, the sustained complete regressions entry in test [3] is given as “no sustained complete regressions”. The flank tumor volume result in [5] (treatment at 15 days post inoculation) and in [5] (treatment at 20 days post inoculation) was “tumor stasis” each time.
On to `Nc1ncn([C@@H]2O[C@H](CO)[C@@H](O)[C@H]2O)c(=O)n1` [Aza-C, azacitidine], for which the “reduction in tumor volume” value in [5] (Aza-C at the 3 mkg dose, IP, Day 1 to 5) is listed as approximately 50%.
`Nc1nc(Cl)nc2c1ncn2[C@H]1C[C@H](O)[C@@H](CO)O1` [cladribine]: the pEC50 (in general, the EC50 on a negative log10 scale, so that one unit is a factor of ten) with MV4-11 cell lines [7] was 7.79.
For `Nc1ccn([C@@H]2O[C@H](CO)[C@@H](O)[C@@H]2O)c(=O)n1` [cytarabine], the sustained complete regressions entry in test [3] is recorded as “no sustained complete regressions”. The tumor burden entry in test [3] (sequential, second administration of Ara-C in animals that had 2 weeks of AC220 treatment) is reported as “capable of reducing tumor burden”. The pEC50 with MV4-11 cell lines [8] is 6.42.
As to `COc1cccc2c1C(=O)c1c(O)c3c(c(O)c1C2=O)C[C@@](O)(C(C)=O)C[C@@H]3O[C@H]1C[C@H](N)[C@H](O)[C@H](C)O1` [daunorubicin], in the test with MV4-11 cell lines [9], the pEC50 is 7.90.
`COc1cc([C@@H]2c3cc4c(cc3[C@@H](O[C@@H]3O[C@@H]5CO[C@@H](C)O[C@H]5[C@H](O)[C@H]3O)[C@H]3COC(=O)[C@H]23)OCO4)cc(OC)c1O` [etoposide]: the pEC50 in the test on MV4-11 cell lines [10] was 7.46.
